# Experimental data from US9248162B2, “Factor H for treatment of rheumatoid arthritis” (Baxter International Inc., priority 2013, dated 2016).
# Where “and” joins values, the source holds several entries; their conditions need not be identical. Equal values may be shown once. Entries after “also recorded” stand apart in the source; their conditions may differ. Marks after values point to notes of the source that are not given here.
# What was measured:
# Format in all cases: in vivo, Balb C mice
# [1] = Mouse CAIA: body weight and tolerability
# Protocol: (§1) Balb C mice (n=10 per cohort) were used to determine the efficacy of Factor H (FH) during […]. The mice were treated with ArthritoMAb (anti-collagen) antibody cocktail (2 mg, i.v.) on day 1, followed 7 days later with an injection of LPS (50 μg, i.p.). On day 8, hind paw volumes were measured for each animal and distributed to various treatment groups.
# (§2) Dosing with the different agents was started on day 8 as described in Table 3.
# (§3) Hind paw volumes were measured on day 8, 11, 12, 13, 15, 19 and 22 (endpoint). The age at start date was 7 to 9 weeks. Body weights were measured bi-weekly to the endpoint (Table 4). At the endpoint, tissue samples were processed for histology and submitted to a pathologist for independent analysis. Sampling 1 was performed at the endpoint. The hind limbs were preserved in 10% formalin. Sampling 2 was performed at the endpoint for group 4 animals. Blood was collected by terminal cardiac puncture. The blood was processed for anti-coagulant. The kidneys were additionally preserved in formalin and followed with 70% EtOH. Samples were scored for inflammation, pannus (granulation tissue), cartilage damage, bone resorption and exostosis (Table 5).
# [2] = system: collagen antibody-induced arthritis; assay: Mouse CAIA: ankle histology scores (H & E); parameters: key: 0: normal; 1: minimal infiltration of inflammatory cells in periarticular tissue; 2: mild infiltration; 3: moderate infiltration with moderate edema; 4: marked infiltration with marked edema; 5: severe infiltration with severe edema; conditions: individual animal, score 0-5, endpoint day 22, listed as Group 4
# Protocol: as §1, §2, §3
# [3] = system: collagen antibody-induced arthritis; assay: Mouse CAIA: clinical score; parameters: key to Clinical Score, Summary (significance): ns: = not significant; *: = P < 0.05; **: = P < 0.01; ***: = P < 0.001
# Protocol: The mice were treated with ArthritoMAb (anti-collagen) antibody cocktail (2 mg, i.v.) on day 1, followed 7 days later with an injection of LPS (50 μg, i.p.). On day 8, hind paw volumes were measured for each animal and distributed to various treatment groups.
# (§4) Factor H was formulated in 20 mM Citrate, 150 mM NaCl, pH=6. […] Ethanercept was formulated as Enbrel™ in saline. Vehicle was formulated in 20 mM Citrate, 150 mM NaCl, pH=6. […] The dosing volume for Factor H and BX12 was 25 mL/kg (0.500 mL/20 g mouse) and adjusted accordingly for body weight.
# as §2
# [4] = system: collagen antibody-induced arthritis; assay: Mouse CAIA: ankle histology scores (H & E); parameters: key: 0: normal; 1: minimal infiltration of pannus in cartilage and subchondral bone; 2: mild infiltration; 3: moderate infiltration; 4: marked infiltration; 5: severe infiltration; conditions: individual animal, score 0-5, endpoint day 22, listed as Group 4
# Protocol: as §1, §2, §3
# [5] = system: collagen antibody-induced arthritis; assay: Mouse CAIA: hind paw / footpad volume (swelling, disease burden); parameters: Mean Disease Burden / Total Disease Burden (AUC) / Hind Limb Volume, Mean Diff. / Total Disease, Mean Diff.: unit not given here; conditions: for % Disease Suppression / Total Disease Burden (AUC): days 8-22
# Protocol: as §1, §4, §2
# as §3, with “The” for “Hind paw volumes were measured on day 8, 11, 12, 13, 15, 19 and 22 (endpoint). The”
# [6] = system: collagen antibody-induced arthritis; assay: Mouse CAIA: ankle histology scores (H & E); parameters: key: 0: normal; 1: minimal to mild loss of staining density with no obvious chondrocyte loss or collagen disruption; 2: mild loss of staining density with focal mild (superficial) chondrocyte loss and/or collagen disruption; 3: moderate loss of staining density with multifocal moderate (depth to middle zone) chondrocyte loss and/or collagen disruption; 4: marked loss of staining density with multifocal marked (depth to deep zone) chondrocyte loss and/or collagen disruption; 5: severe diffuse loss of staining density with multifocal severe (depth to tide mark) chondrocyte loss and/or collagen disruption; conditions: individual animal, score 0-5, endpoint day 22, listed as Group 4
# Protocol: as §1, §2, §3
# [7] = system: collagen antibody-induced arthritis; assay: Mouse CAIA: ankle histology scores (H & E); parameters: key: 0: normal; 1: minimal; 2: mild; 3: moderate; 4: marked; 5: severe; conditions: individual animal, score 0-5, endpoint day 22, listed as Group 4
# Protocol: as §1, §2, §3
# [8] = Vehicle vs agent, Dunn's Multiple Comparison Test
# [9] = Vehicle vs agent, Dunnett's Multiple Comparison Test
# [10] = individual animal, listed as BX12
substance,measurement,setting,value
Factor H,Mean Body Weigh at Nadir,"[1]; mouse, in vivo",−7.4%
same,body weights vs. vehicle controls,"[1]; mouse, in vivo",comparable to vehicle controls
same,treatment-related deaths,"[1]; result in words, FH 440 mg/kg i.p. qodx7",no treatment-related deaths
same,Score From H & E: Bone Resorption,[2],0
same,Score From H & E: Cartilage Damage,[2],0
same,Score From H & E: Pannus,[2],2 and 0 (4×)
same,Score From H & E: Periosteal/Exostotic Changes,[2],0
same,"Clinical Score, Difference in rank sum",[3]; [8],8.3
same,"Clinical Score, Summary (significance)",[3]; [8],ns
same,"Max Clin Score, Mean","[3]; group mean, n=10",33.40
same,"Clinical Score, Day of Study 8, Mean","[3]; group mean, n=10, day 8 (start of dosing)",3.00
same,"Clinical Score, Day of Study 11, Mean","[3]; group mean, n=10, day 11",14.60
same,"Clinical Score, Day of Study 12, Mean","[3]; group mean, n=10, day 12",33.40
same,"Clinical Score, Day of Study 13, Mean","[3]; group mean, n=10, day 13",23.60
same,"Clinical Score, Day of Study 16, Mean","[3]; group mean, n=10, day 16 (Jul. 1, 2011)",16.90
same,"Clinical Score, Day of Study 19, Mean","[3]; group mean, n=10, day 19",18.20
same,"Clinical Score, Day of Study 22, Mean","[3]; group mean, n=10, day 22 (endpoint)",18.80
same,Day (of Max Clin Score),"[3]; individual animal, day of study",12
same,Max Clin Score,"[3]; individual animal, maximum over days 8 to 22, listed as BX12",37 and 42 (2×) and 20 and 21 and 49 and 30 and 32 and 16 and 45
same,"Clinical Score, Day of Study 8","[3]; individual animal, score 0-60, day 8 (start of dosing), listed as BX12",5 (3×) and 0 (6×) and 15
same,"Clinical Score, Day of Study 11","[3]; individual animal, score 0-60, day 11, listed as BX12",25 and 10 (2×) and 15 (2×) and 5 and 18 and 21 (2×) and 6
same,"Clinical Score, Day of Study 12","[3]; individual animal, score 0-60, day 12, listed as BX12",37 and 42 (2×) and 20 and 21 and 49 and 30 and 32 and 16 and 45
same,"Clinical Score, Day of Study 13","[3]; individual animal, score 0-60, day 13, listed as BX12",18 and 37 and 34 and 20 (2×) and 10 and 40 and 26 and 15 and 16
same,"Clinical Score, Day of Study 16","[3]; individual animal, score 0-60, day 16 (Jul. 1, 2011), listed as BX12",13 and 21 and 15 (2×) and 10 and 1 and 43 and 25 and 6 and 20
same,"Clinical Score, Day of Study 19","[3]; individual animal, score 0-60, day 19, listed as BX12",25 and 31 and 20 (2×) and 10 (3×) and 0 and 46 and 7
same,"Clinical Score, Day of Study 22","[3]; individual animal, score 0-60, day 22 (endpoint), listed as BX12",24 and 31 and 21 and 10 and 1 and 39 and 15 and 26 and 5 and 16
same,"Day (of Max Clin Score), Mean","[3]; listed as 'Mean', n=10, day of study",12.00
same,clinical response / clinical score,"[3]; result in words (Tables 6 and 7, FIG. 10), listed as FH",improved clinical response compared to vehicle control animals; also recorded: improves more over Etanercept at later time points (days 15 to 22); also recorded: lower clinical score compared to both vehicle and Etanercept
same,Mean Maximum Clinical Score,"[3]; scored from 0 to 60 (15/limb), sum of 4 limbs, vehicle 45.4",33.4^ns
same,Score From H & E: Pannus,[4],1 (4×) and 3
same,"Hind Limb Volume, Mean Diff.",[5]; [9],0.1199
same,"Hind Limb Volume, Summary (significance)",[5]; [9],*** (= P < 0.001)
same,"Total Disease, Mean Diff.",[5]; [9],1.88
same,"Total Disease, Summary (significance)",[5]; [9],*** (= P < 0.001)
same,Hind paw volume,"[5]; day 8 of study, group mean, n 10",0.35 mL
same,Hind paw volume,"[5]; day 8 of study, individual animal, listed as BX12",0.41 mL and 0.4 mL and 0.38 mL and 0.37 mL and 0.35 mL and 0.34 mL and 0.32 mL (2×) and 0.3 mL (2×)
same,Hind paw volume,"[5]; day 11 of study, group mean, n 10",0.39 mL
same,Hind paw volume,"[5]; day 11 of study, individual animal, listed as BX12",0.44 mL and 0.36 mL and 0.38 mL and 0.4 mL and 0.34 mL and 0.39 mL and 0.46 mL and 0.43 mL and 0.35 mL
same,Hind paw volume,"[5]; day 12 of study, group mean, n 10",0.44 mL
same,Hind paw volume,"[5]; day 12 of study, individual animal, listed as BX12",0.5 mL and 0.56 mL and 0.52 mL and 0.4 mL and 0.35 mL and 0.55 mL and 0.37 mL and 0.34 mL and 0.3 mL and 0.45 mL
same,Hind paw volume,"[5]; day 13 of study, group mean, n 10",0.36 mL
same,Hind paw volume,"[5]; day 13 of study, individual animal, listed as BX12",0.32 mL (2×) and 0.54 mL and 0.36 mL and 0.29 mL (2×) and 0.43 mL and 0.37 mL and 0.39 mL and 0.33 mL
same,Hind paw volume,"[5]; day 16 of study, group mean, n 10",0.31 mL
same,Hind paw volume,"[5]; day 16 of study, individual animal, listed as BX12",0.29 mL (2×) and 0.35 mL (2×) and 0.32 mL and 0.28 mL (3×) and 0.42 mL and 0.27 mL
same,Hind paw volume,"[5]; day 19 of study, group mean, n 10",0.34 mL
same,Hind paw volume,"[5]; day 19 of study, individual animal, listed as BX12",0.3 mL (2×) and 0.4 mL and 0.42 mL and 0.31 mL and 0.25 mL and 0.45 mL and 0.29 mL (2×) and 0.36 mL
same,Hind paw volume,"[5]; day 22 of study, group mean, n 10",0.35 mL
same,Hind paw volume,"[5]; day 22 of study, individual animal, listed as BX12",0.38 mL and 0.39 mL and 0.32 mL (2×) and 0.33 mL and 0.42 mL and 0.35 mL and 0.34 mL (2×) and 0.29 mL
same,% Disease Suppression,"[5]; group mean, n 10",97.33%
same,Total Disease Burden (AUC),"[5]; group mean, n 10",0.05
same,% Disease Suppression,[5]; [10],140.2% and 93.5% and 107.8% and 121.6% and 130.8% and 38.3% and 96.1% and 96.9% and 65.5% and 52.1%
same,Total Disease Burden (AUC),[5]; [10],−0.78 and 0.13 and −0.15 and −0.42 and −0.60 and 1.19 and 0.08 (2×) and 0.55 and 0.35
same,Maximum Δ Mean Volume,"[5]; difference between mean combined foot pad volumes on day 8 and on median day of maximal swelling, vehicle 0.21",0.12*** ml
same,Mean Disease Burden,"[5]; group mean AUC of combined footpad volume over baseline, days 8 to 22, vehicle 1.93",0.05***
same,% Disease Suppression (vs Vehicle),[5]; percent decrease in total disease burden relative to vehicle,97.3%
same,foot pad / hind limb swelling,"[5]; result in words (Table 9, FIG. 9), listed as FH",lower mean change in foot pad swelling on the day of maximal swelling compared to vehicle; also recorded: performed well compared to Etanercept
same,Score From H & E: Cartilage Damage,[6],1 (4×) and 2
same,Score From H & E: Bone Resorption,[7],1 and 2
same,Score From H & E: Periosteal/Exostotic Changes,[7],3
